Target: CTX-M-14 β-lactamase (Escherichia coli, UniProt Q9L5C7)
Assay: hydrolysis kinetics
Format: biochemical
Details: read-out: Cefotaxime / Km; purified enzyme

Which Km does the source give for `CO/N=C(\C(=O)N[C@@H]1C(=O)N2C(C(=O)O)=C(COC(C)=O)CS[C@H]12)c1csc(N)n1` [cefotaxime] here?
The Km was 83.8 ± 2.3 µM.

Reference: PMC8858684 (FEBS letters, 2021)
